Data as given in US20230167073A1 (Teijin Pharma Limited, priority 2020, published 2023).

target: T1, Human TRPC6 (Homo sapiens, UniProt Q9Y210); assay: Evaluation of TRPC6 channel inhibitory activity (1), FLIPR Calcium 5 Assay Kit, OAG stimulation (Compound Nos. 1-1293); type: cell-based; conditions: Human TRPC6 stably-expressing cells, OAG 30 μM, FLIPR Calcium 5 Assay Kit; read-out: Inhibitory activity (pIC50 class) (converted)
T1 construct: expressed in transfected cells
T1 sequence (Q9Y210 1-931): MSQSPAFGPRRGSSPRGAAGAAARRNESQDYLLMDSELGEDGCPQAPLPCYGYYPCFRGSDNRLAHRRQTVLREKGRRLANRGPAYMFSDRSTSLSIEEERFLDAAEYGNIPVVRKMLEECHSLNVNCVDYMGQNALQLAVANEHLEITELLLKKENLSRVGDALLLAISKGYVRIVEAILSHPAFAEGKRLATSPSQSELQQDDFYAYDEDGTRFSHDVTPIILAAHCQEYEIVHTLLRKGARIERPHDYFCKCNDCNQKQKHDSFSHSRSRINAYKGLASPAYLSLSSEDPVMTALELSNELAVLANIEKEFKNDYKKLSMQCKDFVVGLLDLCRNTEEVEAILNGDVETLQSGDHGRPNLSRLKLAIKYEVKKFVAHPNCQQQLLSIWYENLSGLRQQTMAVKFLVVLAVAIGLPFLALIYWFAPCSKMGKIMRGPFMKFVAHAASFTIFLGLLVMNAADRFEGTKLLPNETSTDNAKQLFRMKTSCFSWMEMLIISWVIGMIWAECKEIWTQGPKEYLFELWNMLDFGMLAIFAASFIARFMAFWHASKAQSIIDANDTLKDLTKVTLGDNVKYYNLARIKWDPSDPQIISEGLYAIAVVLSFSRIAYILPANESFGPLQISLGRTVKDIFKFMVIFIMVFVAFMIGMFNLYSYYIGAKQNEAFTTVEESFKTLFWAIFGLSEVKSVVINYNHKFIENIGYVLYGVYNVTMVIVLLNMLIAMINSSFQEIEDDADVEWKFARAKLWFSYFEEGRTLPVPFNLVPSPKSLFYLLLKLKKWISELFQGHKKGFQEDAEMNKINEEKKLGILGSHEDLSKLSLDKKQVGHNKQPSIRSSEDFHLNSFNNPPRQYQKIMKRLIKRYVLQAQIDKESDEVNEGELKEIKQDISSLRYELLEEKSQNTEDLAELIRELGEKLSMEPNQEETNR
Procedure, shortened: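 Readout is pIC50 from four-parameter logistic fitting of inhibition of the OAG-evoked (30 μM final) fluorescence calcium signal. Human TRPC6 stable cells are dye-loaded with probenecid, and compound is applied 20 min ahead of agonist.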

`Cc1nc(Oc2cc(C#N)ccc2-c2ncc(CN)cn2)cc(OC2COC2)n1` [compound 895, 4-[5-(aminomethyl)pyrimidin-2-yl]-3-[2-methyl-6-(oxetan-3-yloxy)pyrimidin-4-yl]oxybenzonitrile] and `Cc1nc(Oc2cc(C#N)ccc2-c2ncc(CN)cn2)cc(OC2CC2)n1` [compound 898, 4-[5-(aminomethyl)pyrimidin-2-yl]-3-(6-cyclopropyloxy-2-methylpyrimidin-4-yl)oxybenzonitrile] cannot be ordered by IC50: > 1000 nM for the first, > 1000 nM for the second.

First: Cc1nc(Oc2cc(C#N)ccc2-c2ncc(CN)cn2)cc(OC(C)C)n1 [compound 896, 4-[5-(aminomethyl)pyrimidin-2-yl]-3-(2-methyl-6-propan-2-yloxypyrimidin-4-yl)oxybenzonitrile]
Second: Cc1nc(OCC(F)F)cc(Oc2cc(C#N)ccc2-c2ncc(CN)cn2)n1 [compound 897, 4-[5-(aminomethyl)pyrimidin-2-yl]-3-[6-(2,2-difluoroethoxy)-2-methylpyrimidin-4-yl]oxybenzonitrile]
The IC50 of the first is lower: 10 to 1000 nM for the first, > 1000 nM for the second.

Compared with `Cc1cc(Oc2cc(C#N)c(C)cc2-c2ncc(CN)cn2)cc(N2CCOCC2)n1` [compound 899, 4-[5-(aminomethyl)pyrimidin-2-yl]-2-methyl-5-(2-methyl-6-morpholin-4-ylpyridin-4-yl)oxybenzonitrile], `Cc1cc(Oc2cc(C#N)c(C)cc2-c2ncc(CCN)cn2)cc(N2CCOCC2)n1` [compound 900, 4-[5-(2-aminoethyl)pyrimidin-2-yl]-2-methyl-5-(2-methyl-6-morpholin-4-ylpyridin-4-yl)oxybenzonitrile] is lower in IC50: 10 to 1000 nM for the first, < 10 nM for the second.

First: Cc1cnc(N2CCOCC2)cc1Oc1cc(C#N)ccc1-c1ncc(CN)cn1 [compound 901, 4-[5-(aminomethyl)pyrimidin-2-yl]-3-(5-methyl-2-morpholin-4-ylpyridin-4-yl)oxybenzonitrile]
Second: Cc1cnc(N2CCOCC2)cc1Oc1cc(C#N)ccc1-c1ncc(CCN)cn1 [compound 902, 4-[5-(2-aminoethyl)pyrimidin-2-yl]-3-(5-methyl-2-morpholin-4-ylpyridin-4-yl)oxybenzonitrile]
The IC50 of the first is higher: > 1000 nM for the first, 10 to 1000 nM for the second.

`Cn1nc(C(F)(F)F)cc1Oc1cc(C#N)ccc1-c1ncc([C@H](F)CN)cn1` [compound 903, 4-[5-[(1S)-2-amino-1-fluoroethyl]pyrimidin-2-yl]-3-[2-methyl-5-(trifluoromethyl)pyrazol-3-yl]oxybenzonitrile] and `Cn1nc(C(F)(F)F)cc1Oc1cc(C#N)ccc1-c1ncc([C@@H](F)CN)cn1` [compound 904, 4-[5-[(1R)-2-amino-1-fluoroethyl]pyrimidin-2-yl]-3-[2-methyl-5-(trifluoromethyl)pyrazol-3-yl]oxybenzonitrile] cannot be ordered by IC50: < 10 nM for the first, < 10 nM for the second.

`CN(C)c1cc(Oc2cc(C#N)ccc2-c2ncc([C@H](F)CN)cn2)n(C)n1` [compound 905, 4-[5-[(1S)-2-amino-1-fluoroethyl]pyrimidin-2-yl]-3-[5-(dimethylamino)-2-methylpyrazol-3-yl]oxybenzonitrile] and `CN(C)c1cc(Oc2cc(C#N)ccc2-c2ncc([C@@H](F)CN)cn2)n(C)n1` [compound 906, 4-[5-[(1R)-2-amino-1-fluoroethyl]pyrimidin-2-yl]-3-[5-(dimethylamino)-2-methylpyrazol-3-yl]oxybenzonitrile] cannot be ordered by IC50: < 10 nM for the first, < 10 nM for the second.

`CC(C)Cn1cc(Oc2cc(C#N)ccc2-c2ncc(CCN)cn2)cn1` [compound 907, 4-[5-(2-aminoethyl)pyrimidin-2-yl]-3-[1-(2-methylpropyl)pyrazol-4-yl]oxybenzonitrile] and `CC(C)Cn1cc(Oc2cc(C#N)ccc2-c2ncc(CN)cn2)cn1` [compound 908, 4-[5-(aminomethyl)pyrimidin-2-yl]-3-[1-(2-methylpropyl)pyrazol-4-yl]oxybenzonitrile] cannot be ordered by IC50: < 10 nM for the first, < 10 nM for the second.

`CN(C)c1cc(Oc2cc(C#N)ccc2-c2ccc([C@H](F)CN)cn2)n(C)n1` [compound 909, 4-[5-[(1S)-2-amino-1-fluoroethyl]pyridin-2-yl]-3-[5-(dimethylamino)-2-methylpyrazol-3-yl]oxybenzonitrile] and `CN(C)c1cc(Oc2cc(C#N)ccc2-c2ccc([C@@H](F)CN)cn2)n(C)n1` [compound 910, 4-[5-[(1R)-2-amino-1-fluoroethyl]pyridin-2-yl]-3-[5-(dimethylamino)-2-methylpyrazol-3-yl]oxybenzonitrile] cannot be ordered by IC50: < 10 nM for the first, < 10 nM for the second.

First: N#Cc1ccc(-c2ncc(CCN)cn2)c(Oc2cnn(CC(F)(F)F)c2)c1 [compound 911, 4-[5-(2-aminoethyl)pyrimidin-2-yl]-3-[1-(2,2,2-trifluoroethyl)pyrazol-4-yl]oxybenzonitrile]
Second: N#Cc1ccc(-c2ncc(CCN)cn2)c(Oc2cnn(-c3ccccn3)c2)c1 [compound 912, 4-[5-(2-aminoethyl)pyrimidin-2-yl]-3-(1-pyridin-2-ylpyrazol-4-yl)oxybenzonitrile]
The IC50 of the first is higher: 10 to 1000 nM for the first, < 10 nM for the second.

`CCN(CC)c1cc(Oc2cc(C#N)ccc2-c2ncc([C@H](F)CN)cn2)n(C)n1` [compound 913, 4-[5-[(1S)-2-amino-1-fluoroethyl]pyrimidin-2-yl]-3-[5-(diethylamino)-2-methylpyrazol-3-yl]oxybenzonitrile] and `CCN(CC)c1cc(Oc2cc(C#N)ccc2-c2ncc([C@@H](F)CN)cn2)n(C)n1` [compound 914, 4-[5-[(1R)-2-amino-1-fluoroethyl]pyrimidin-2-yl]-3-[5-(diethylamino)-2-methylpyrazol-3-yl]oxybenzonitrile] cannot be ordered by IC50: < 10 nM for the first, < 10 nM for the second.

`CCN(CC)c1cc(Oc2cc(C#N)ccc2-c2ccc([C@H](F)CN)cn2)n(C)n1` [compound 915, 4-[5-[(1S)-2-amino-1-fluoroethyl]pyridin-2-yl]-3-[5-(diethylamino)-2-methylpyrazol-3-yl]oxybenzonitrile] and `CCN(CC)c1cc(Oc2cc(C#N)ccc2-c2ccc([C@@H](F)CN)cn2)n(C)n1` [compound 916, 4-[5-[(1R)-2-amino-1-fluoroethyl]pyridin-2-yl]-3-[5-(diethylamino)-2-methylpyrazol-3-yl]oxybenzonitrile] cannot be ordered by IC50: < 10 nM for the first, < 10 nM for the second.

First: N#Cc1ccc(-c2ncc(CCN)cn2)c(Oc2cncc(N3CCOCC3)c2)c1 [compound 917, 4-[5-(2-aminoethyl)pyrimidin-2-yl]-3-(5-morpholin-4-ylpyridin-3-yl)oxybenzonitrile]
Second: N#Cc1ccc(-c2ncc(CN)cn2)c(Oc2cncc(N3CCOCC3)c2)c1 [compound 918, 4-[5-(aminomethyl)pyrimidin-2-yl]-3-(5-morpholin-4-ylpyridin-3-yl)oxybenzonitrile]
The IC50 of the first is lower: 10 to 1000 nM for the first, > 1000 nM for the second.

First: Cc1ncc(N2CCOCC2)cc1Oc1cc(C#N)ccc1-c1ncc(CCN)cn1 [compound 919, 4-[5-(2-aminoethyl)pyrimidin-2-yl]-3-(2-methyl-5-morpholin-4-ylpyridin-3-yl)oxybenzonitrile]
Second: Cc1ncc(N2CCOCC2)cc1Oc1cc(C#N)ccc1-c1ncc(CN)cn1 [compound 920, 4-[5-(aminomethyl)pyrimidin-2-yl]-3-(2-methyl-5-morpholin-4-ylpyridin-3-yl)oxybenzonitrile]
The IC50 of the first is lower: 10 to 1000 nM for the first, > 1000 nM for the second.

`Cc1nc(N2CCOCC2)ccc1Oc1cc(C#N)ccc1-c1ncc(CCN)cn1` [compound 921, 4-[5-(2-aminoethyl)pyrimidin-2-yl]-3-(2-methyl-6-morpholin-4-ylpyridin-3-yl)oxybenzonitrile] and `Cc1nc(N2CCOCC2)ccc1Oc1cc(C#N)ccc1-c1ncc(CN)cn1` [compound 922, 4-[5-(aminomethyl)pyrimidin-2-yl]-3-(2-methyl-6-morpholin-4-ylpyridin-3-yl)oxybenzonitrile] cannot be ordered by IC50: > 1000 nM for the first, > 1000 nM for the second.

`Cn1nc(C2CC2)cc1Oc1cc(C#N)ccc1-c1ccc(C(=O)CN)cn1` [compound 923, 4-[5-(2-aminoacetyl)pyridin-2-yl]-3-(5-cyclopropyl-2-methylpyrazol-3-yl)oxybenzonitrile] and `Cc1nn(CC(F)F)cc1Oc1cc(C#N)ccc1-c1ncc(CCN)cn1` [compound 924, 4-[5-(2-aminoethyl)pyrimidin-2-yl]-3-[1-(2,2-difluoroethyl)-3-methylpyrazol-4-yl]oxybenzonitrile] fall in the same range of IC50: 10 to 1000 nM for the first, 10 to 1000 nM for the second.

`Cc1c(Oc2cc(C#N)ccc2-c2ncc(CCN)cn2)cnn1CC(F)F` [compound 925, 4-[5-(2-aminoethyl)pyrimidin-2-yl]-3-[1-(2,2-difluoroethyl)-5-methylpyrazol-4-yl]oxybenzonitrile] was tested, and the IC50 was > 1000 nM.
